Reference: publication PMC11739978, “Next-Generation Carbazole-Linked 1,2,4-Triazole-Thione Derivatives: Strategic Design, Synthesis, Molecular Docking, and Evaluation of Antidiabetic Potential” (ACS Omega, 2024)
Values joined by “and” are separate entries in the source; they are usually repeats but may differ in a detail not shown here. Equal entries are not always repeated.

Columns and labels:
[1] = MTS cytotoxicity assay on LX-2 normal hepatic cells; details: human, LX-2 hepatic stellate cells
[2] = tested on: STZ-induced diabetic mice; test: In vivo hypoglycemic effect in mice with STZ-induced diabetes; details: group III STZ-diabetic mice, fasting
Experimental: The Carbazole-triazole derivatives were tested in a laboratory setting to determine their ability to inhibit the enzyme α-amylase and α-glucosidase. […] Therefore, C5f was selected for further investigation of its ability to lower blood sugar levels in an in vivo study. This investigation sought to reveal the effect of C5f on blood glucose levels in mice with diabetes caused by Streptozotocin (STZ). This compound has a significant hypoglycemic effect in STZ-diabetic mice, similar to the effect reported in the control group (mice that were not treated), as shown in Figure 3. The mice were divided into three groups: group I: negative control mice without any treatment; Group II: positive control mice with STZ treatment only; and Group III: mice treated with STZ and then with our compound C5f.
The investigations conducted on mice adhered strictly to the protocols established by the Association for Assessment and Accreditation of Laboratory Animal Care International. The Institutional Review Board of the Animal House and Use Committee at An-Najah National University granted full ethical approval for the study (approval number: Med. September. 2022/2A). […]
The experiment entailed inducing diabetes intraperitoneally by administering streptozotocin (STZ) (i.p.). […] To determine the development of diabetes, the mice’s fasting blood glucose levels were evaluated 4 days following the injection of STZ. […]

LX-2 cells = test: MTS cytotoxicity assay on LX-2 normal hepatic cells; details: LX-2, 100 μM

For `O=c1[nH]cc(F)c(=O)[nH]1` [5-Fu, 5-Fluorouracil, reference compound], the viability at 24 h, 100 µM [1] was 13.4%.
For `COc1ccc(-n2c(Cn3c4ccccc4c4ccccc43)n[nH]c2=S)cc1` [C5f, 5-((9H-Carbazol-9-yl)methyl)-4-(4-methoxyphenyl)-2,4-dihydro-3H-1,2,4-triazole-3-thione], the “blood glucose level after five doses of C5f” value ([2]; 10 mg/kg i.p. daily for 5 days, 10 mg/kg) was 216.15 mg/dL and 216.15 ± 3.45 mg/dL, the “blood glucose level before C5f treatment” value ([2]; baseline after STZ induction) was 290.54 mg/dL and 290.54 ± 2.15 mg/dL and the viability at 24 h, 100 µM [1] was 63.6%.
With `S=c1[nH]nc(Cn2c3ccccc3c3ccccc32)n1-c1ccc(Br)cc1` [C5g, 5-((9H-Carbazol-9-yl)methyl)-4-(4-bromophenyl)-2,4-dihydro-3H-1,2,4-triazole-3-thione] the viability at 24 h, 100 µM [1] was 65.3 to 85.3%.
`S=c1[nH]nc(Cn2c3ccccc3c3ccccc32)n1-c1ccc(Cl)cc1` [C5h, 5-((9H-Carbazol-9-yl)methyl)-4-(4-chlorophenyl)-2,4-dihydro-3H-1,2,4-triazole-3-thione] gave a viability at 24 h, 100 µM [1] of 65.3 to 85.3%.
`S=c1[nH]nc(Cn2c3ccccc3c3ccccc32)n1C1CCCCC1` [C5m, 5-((9H-Carbazol-9-yl)methyl)-4-cyclohexyl-2,4-dihydro-3H-1,2,4-triazole-3-thione] gave a viability at 24 h, 100 µM [1] of 65.3 to 85.3%.
For `O=C(c1ccccc1)n1c(Cn2c3ccccc3c3ccccc32)n[nH]c1=S` [C5o, (3-((9H-Carbazol-9-yl)methyl)-5-thioxo-1,5-dihydro-4H-1,2,4-triazol-4-yl)(phenyl)methanone], the viability at 24 h, 100 µM [1] was 36.5% and the “lower cytotoxic activity compared to the positive control 5-FU” value (LX-2 cells) was 3 fold.
`S=c1[nH]nc(Cn2c3ccccc3c3ccccc32)n1C1CC2CCC1C2` (stereo not drawn) [C5r, 5-((9H-Carbazol-9-yl)methyl)-4-(bicyclo[2.2.1]heptan-2-yl)-2,4-dihydro-3H-1,2,4-triazole-3-thione] gave a viability at 24 h, 100 µM [1] of 64.5%.
For `S=c1[nH]nc(Cn2c3ccccc3c3ccccc32)n1CCc1ccccc1` [C5s, 5-((9H-Carbazol-9-yl)methyl)-4-phenethyl-2,4-dihydro-3H-1,2,4-triazole-3-thione], the viability at 24 h, 100 µM [1] was 37.8% and the “lower cytotoxic activity compared to the positive control 5-FU” value (LX-2 cells) was 3 fold.
